Measured values published in US20210113501A1, “METHOD OF ADMINISTERING BETA-HYDROXY-BETA-METHYLBUTYRATE (HMB)” (Metabolic Technologies, Inc., priority 2009, published 2021).

Assay: Study 2 blood chemistry
Type: in vivo, human
Settings: for Aspartate Aminotransferase / Gamma-glutamyl: in U/L (unit assumed)
Protocol: Study 2 design. Study 2 was conducted similar to study 1 with the following modifications. In study 2, plasma levels of HMB were measured for 1440 min (24 h) and total urine collection was also performed for measurement of urinary HMB excretion during this period. After the 180 min blood sample, the subjects were allowed to leave the laboratory and were instructed to return to the laboratory for additional blood samples at 360, 720, and 1440 min after the ingestion of the supplement. As in study 1, each subject took each of the treatments with at least a one week washout period between treatments. Samples were again stored frozen at −70° C. for analysis of plasma and urinary HMB concentrations. Pre-ingestion, 180 min and 1440 min blood samples were again assayed for the same measurements already for study 1. Subjects were provided with a standardized lunch after the 180 min blood sampling and instructed to eat this at approximately 240 min post ingestion. Following the 720 min blood sample, subjects were instructed to eat a normal evening meal before 10 pm. Subjects reported back to the laboratory the following morning for the fasted 1440 min blood sample. A urine collection container was provided and subjects collected all urine produced during the experimental 24 h experimental period. The urine was stored refrigerated when not being collected. Urine volumes were measured and samples of the total urine collection were taken and stored frozen at −70° C. until analyzed for HMB.
The data were analyzed using a crossover design with Proc GLM in SAS. (45) For the timed sampling of plasma HMB a repeated measures polynomial model was used. The model included subject, order, and treatment main effects and time by treatment interaction where appropriate. For other parameters Proc GLM was also used with subject, order, and treatment main effects and the p values are reported for the treatment main effect. Statistical significance was determined for p<0.05 and a trend was determined for 0.05<p<0.10.

**Q.** Which “A:G Ratio” value (After (24 h)) does the source give for CC(C)(O)CC(=O)O [HMB-Acid Gel Swallow, 3-hydroxy-3-methylbutyric acid] here?
**A.** 1.8 ± 0.1

**Q.** And the “Alanine Aminotransferase” value (After (24 h))?
**A.** 16.4 ± 1.7 IU/L

**Q.** What about the Albumin (After (24 h)) of the same compound?
**A.** 4.3 ± 0.1 g/dL

**Q.** And the “Alkaline Phosphatase” value (After (24 h))?
**A.** 74.1 ± 7.6 IU/L

**Q.** And the “Blood Urea Nitrogen” value (After (24 h))?
**A.** 13.9 ± 1.4 mg/dL

**Q.** What about the CO2 (After (24 h)) of the same compound?
**A.** 27.8 ± 0.9 mEq/L

**Q.** And the Chloride (After (24 h))?
**A.** 102.8 ± 0.7 mEq/L

**Q.** What about the “Cholesterol Ratio” value (After (24 h)) of the same compound?
**A.** 3.2 ± 0.2

**Q.** And the Creatinine (After (24 h))?
**A.** 1.0 ± 0.1 mg/dL

**Q.** What about the “Direct Bilirubin” value (After (24 h)) of the same compound?
**A.** 0.1 ± 0.04 mg/dL

**Q.** What about the Globulin (After (24 h)) of the same compound?
**A.** 2.4 ± 0.2 g/dL

**Q.** And the Glucose (After (24 h))?
**A.** 79.9 ± 1.9 mg/dL

**Q.** And the HDL (After (24 h))?
**A.** 56.4 ± 2.9 mg/dL

**Q.** And the Iron (After (24 h))?
**A.** 53.8 ± 10.8 µg/dL

**Q.** What about the “Iron Binding Capacity” value (After (24 h)) of the same compound?
**A.** 395.1 ± 34.7 µg/dL

**Q.** What about the “Iron Saturation” value (After (24 h)) of the same compound?
**A.** 16.9 ± 4.6%

**Q.** What about the LDL (After (24 h)) of the same compound?
**A.** 96.1 ± 8.1 mg/dL

**Q.** What about the “Lactate Dehydrogenase” value (After (24 h)) of the same compound?
**A.** 136.6 ± 11.6 IU/L

**Q.** What about the Phosphorus (After (24 h)) of the same compound?
**A.** 4.5 ± 0.2 mg/dL

**Q.** What about the Potassium (After (24 h)) of the same compound?
**A.** 4.7 ± 0.2 mEq/L

**Q.** And the Protein (After (24 h))?
**A.** 6.7 ± 0.2 g/dL

**Q.** And the Sodium (After (24 h))?
**A.** 141.5 ± 0.9 mEq/L

**Q.** What about the “Total Bilirubin” value (After (24 h)) of the same compound?
**A.** 0.5 ± 0.1 mg/dL

**Q.** And the “Total Cholesterol” value (After (24 h))?
**A.** 176.9 ± 11.8 mg/dL

**Q.** What about the Triglycerides (After (24 h)) of the same compound?
**A.** 121.4 ± 22.7 mg/dL

**Q.** And the UIBC (After (24 h))?
**A.** 335.1 ± 42.1 µg/dL

**Q.** What about the “Uric Acid” value (After (24 h)) of the same compound?
**A.** 4.8 ± 0.3 mg/dL

**Q.** What about the “Aspartate Aminotransferase” value (After (24 h)) of the same compound?
**A.** 21.3 ± 0.7

**Q.** And the Gamma-glutamyl (After (24 h))?
**A.** 14.0 ± 1.0

**Q.** And the “A:G Ratio” value (Before)?
**A.** 1.9 ± 0.2

**Q.** And the “Alanine Aminotransferase” value (Before)?
**A.** 16.4 ± 1.6 IU/L

**Q.** What about the Albumin (Before) of the same compound?
**A.** 4.1 ± 0.1 g/dL

**Q.** What about the “Alkaline Phosphatase” value (Before) of the same compound?
**A.** 64.8 ± 7.3 IU/L

**Q.** What about the “Blood Urea Nitrogen” value (Before) of the same compound?
**A.** 14.5 ± 1.4 mg/dL

**Q.** And the CO2 (Before)?
**A.** 24.8 ± 1.0 mEq/L

**Q.** And the Chloride (Before)?
**A.** 103.1 ± 0.8 mEq/L

**Q.** And the “Cholesterol Ratio” value (Before)?
**A.** 3.2 ± 0.2

**Q.** And the Creatinine (Before)?
**A.** 1.0 ± 0.1 mg/dL

**Q.** What about the “Direct Bilirubin” value (Before) of the same compound?
**A.** 0.1 ± 0.03 mg/dL

**Q.** What about the Globulin (Before) of the same compound?
**A.** 2.3 ± 0.2 g/dL

**Q.** And the Glucose (Before)?
**A.** 74.1 ± 2.0 mg/dL

**Q.** What about the HDL (Before) of the same compound?
**A.** 51.4 ± 2.8 mg/dL

**Q.** What about the Iron (Before) of the same compound?
**A.** 68.0 ± 13.4 µg/dL

**Q.** And the “Iron Binding Capacity” value (Before)?
**A.** 378.6 ± 32.1 µg/dL

**Q.** What about the “Iron Saturation” value (Before) of the same compound?
**A.** 20.3 ± 5.0%

**Q.** What about the LDL (Before) of the same compound?
**A.** 90.8 ± 7.0 mg/dL

**Q.** What about the “Lactate Dehydrogenase” value (Before) of the same compound?
**A.** 155.9 ± 13.9 IU/L

**Q.** What about the Phosphorus (Before) of the same compound?
**A.** 4.2 ± 0.2 mg/dL

**Q.** And the Potassium (Before)?
**A.** 4.1 ± 0.1 mEq/L

**Q.** What about the Protein (Before) of the same compound?
**A.** 6.4 ± 0.1 g/dL

**Q.** What about the Sodium (Before) of the same compound?
**A.** 139.9 ± 0.7 mEq/L

**Q.** What about the “Total Bilirubin” value (Before) of the same compound?
**A.** 0.5 ± 0.1 mg/dL

**Q.** What about the “Total Cholesterol” value (Before) of the same compound?
**A.** 164.6 ± 10.5 mg/dL

**Q.** And the Triglycerides (Before)?
**A.** 112.6 ± 18.4 mg/dL

**Q.** And the UIBC (Before)?
**A.** 310.6 ± 42.4 µg/dL

**Q.** And the “Uric Acid” value (Before)?
**A.** 4.7 ± 0.1 mg/dL

**Q.** And the “A:G Ratio % Change” value (Before to After)?
**A.** −2.6%

**Q.** What about the “Alanine Aminotransferase % Change” value (Before to After) of the same compound?
**A.** 0.0%

**Q.** And the “Albumin % Change” value (Before to After)?
**A.** 4.5%

**Q.** What about the “Alkaline Phosphatase % Change” value (Before to After) of the same compound?
**A.** 14.5%

**Q.** And the “Aspartate Aminotransferase % Change” value (Before to After)?
**A.** −8.6%

**Q.** And the “Blood Urea Nitrogen % Change” value (Before to After)?
**A.** −4.3%

**Q.** What about the “CO2 % Change” value (Before to After) of the same compound?
**A.** 12.1%

**Q.** And the “Chloride % Change” value (Before to After)?
**A.** −0.4%

**Q.** What about the “Cholesterol Ratio % Change” value (Before to After) of the same compound?
**A.** −2.3%

**Q.** What about the “Creatinine % Change” value (Before to After) of the same compound?
**A.** −0.6%

**Q.** And the “Direct Bilirubin % Change” value (Before to After)?
**A.** 6.0%

**Q.** And the “Gamma-glutamyl % Change” value (Before to After)?
**A.** 5.7%

**Q.** And the “Globulin % Change” value (Before to After)?
**A.** 6.0%

**Q.** What about the “Glucose % Change” value (Before to After) of the same compound?
**A.** 7.8%

**Q.** And the “HDL % Change” value (Before to After)?
**A.** 9.7%

**Q.** What about the “Iron % Change” value (Before to After) of the same compound?
**A.** −21.0%

**Q.** And the “Iron Binding Capacity % Change” value (Before to After)?
**A.** 4.4%

**Q.** What about the “Iron Saturation % Change” value (Before to After) of the same compound?
**A.** −16.7%

**Q.** And the “LDL % Change” value (Before to After)?
**A.** 5.9%

**Q.** What about the “Lactate Dehydrogenase % Change” value (Before to After) of the same compound?
**A.** −12.3%

**Q.** And the “Phosphorus % Change” value (Before to After)?
**A.** 6.2%

**Q.** And the “Potassium % Change” value (Before to After)?
**A.** 14.0%

**Q.** What about the “Protein % Change” value (Before to After) of the same compound?
**A.** 5.1%

**Q.** And the “Sodium % Change” value (Before to After)?
**A.** 1.2%

**Q.** And the “Total Bilirubin % Change” value (Before to After)?
**A.** 2.6%

**Q.** What about the “Total Cholesterol % Change” value (Before to After) of the same compound?
**A.** 7.4%

**Q.** And the “Triglycerides % Change” value (Before to After)?
**A.** 7.8%

**Q.** And the “UIBC % Change” value (Before to After)?
**A.** 7.9%

**Q.** And the “Uric Acid % Change” value (Before to After)?
**A.** 1.9%

**Q.** What about the “Aspartate Aminotransferase” value (Before) of the same compound?
**A.** 23.3 ± 0.9

**Q.** What about the Gamma-glutamyl (Before) of the same compound?
**A.** 13.3 ± 1.2
